Experimental data: US11766447B2, “3′3′-cyclic dinucleotide analogue comprising a cyclopentanyl modified nucleotide as sting modulator” (INSTITUTE OF ORGANIC CHEMISTRY AND BIOCHEMISTRY ASCR, V.V.I., priority 2019, dated 2023)

Assays:
[1] = biological target: T1, WT STING (Homo sapiens, UniProt Q86WV6, H232R); test: Digitonin assay using 293T wtSTING-FL reporter cells; format: cell-based; parameters: host or cells: 293T (ATCC CRL-3216), stably transfected, with 4xISRE firefly luciferase reporter; settings: 293T wtSTING-FL cells, ISRE firefly luciferase; compounds in Digitonin buffer 30 minutes, then 5 hours; 8-point curve
From the text: Two complementary oligonucleotides of the sequence […] […] […] […] […] The oligonucleotides were mixed in equal molar amounts, hybridized, and cleaved by restriction endonucleases HindIII (cat. #. R0104S, NEB, Ipswich, USA) and BglII (cat. #R0144S, NEB, Ipswich, USA). Ultimately, they were ligated into plasmid pGL4.27 (cat. #E6651, Promega, Madison, USA) linearized with the same enzymes. As result the sequence with four ISRE sites was placed upstream of the minimum promoter of firefly luciferase reporter gene.
After 5 minutes incubation at room temperature (RT), 250 μL of the mixture was added dropwise to the cells in one well. Cells were incubated 36 hours at 37° C. with 5% CO2, and then detached with 0.05% Trypsin and 0.22 g/L EDTA (both cat. #L0941, Biowest, Riverside, USA).
Transfected cells were seeded onto poly-D-lysine coated six well plates at density 50,000 cells per 1 cm^2 in DMEM medium with high glucose containing 10% heat inactivated FBS, 30 μg/mL blasticidin (cat. #ant-b1-05, InvivoGen, San Diego, USA), 0.06 mg/ml Penicillin G and 0.1 mg/ml Streptomycin Sulfate (both cat. #. L0018, Biowest, Riverside, USA). The medium was replenished every 3-4 days until visible colonies of cells resistant to blasticidin were formed.
Blasticidin resistant cells stably expressing WT STING were further transfected with […] plasmid following the same procedure as described above. […] Homogeneous culture of stably double transfected cells was prepared by limiting dilution of cells in 96 well plates and wells with cells were selected that originated from a single cell.
The medium was removed next day and three fold serial dilutions of compounds in Digitonin buffer containing 50 mmol·l^−1 HEPES (cat. #H3375, Sigma Aldrich, Czech Republic) pH 7.0, 100 mmol·l^−1 KCl, 3 mmol·l^−1 MgCl2, 0.1 mmol·l^−1 DTT (cat. #D0632, Sigma Aldrich, Czech Republic), 85 mmol·l^−1 Sucrose (cat. #S7903, Sigma Aldrich, Czech Republic), 0.2% BSA (cat. #A2153, Sigma Aldrich, Czech Republic), 1 mmol·l^−1 ATP (cat. #A1852, Sigma Aldrich, Czech Republic), 0.1 mmol·l^−1 GTP (cat. #G8877, Sigma Aldrich, Czech Republic), and 10 μg/mL Digitonin A (cat. #D141, Sigma Aldrich, Czech Republic) were added to the cells. The buffer was removed after 30 minutes incubation at 37° C. with 5% CO2, the cells were washed once with 100 μl of cultivation medium, and 100 μl of medium was added to each well. The plates with cells were incubated for 5 hours at 37° C. with 5% CO2, 50 μl of the medium was removed and 30 μl of ONE-Glo™ Luciferase Assay System reagent (cat. #E6120, Promega, Madison, USA) was added to each well. Luminescence was read on Synergy H1 (Biotek, Winooski, USA). GraphPad Prism (La Jolla, USA) was used to calculate the 50% effective concentration ([…] from an 8-point dose-response curve.
Target sequence in this assay (Q86WV6 whole entry H232R): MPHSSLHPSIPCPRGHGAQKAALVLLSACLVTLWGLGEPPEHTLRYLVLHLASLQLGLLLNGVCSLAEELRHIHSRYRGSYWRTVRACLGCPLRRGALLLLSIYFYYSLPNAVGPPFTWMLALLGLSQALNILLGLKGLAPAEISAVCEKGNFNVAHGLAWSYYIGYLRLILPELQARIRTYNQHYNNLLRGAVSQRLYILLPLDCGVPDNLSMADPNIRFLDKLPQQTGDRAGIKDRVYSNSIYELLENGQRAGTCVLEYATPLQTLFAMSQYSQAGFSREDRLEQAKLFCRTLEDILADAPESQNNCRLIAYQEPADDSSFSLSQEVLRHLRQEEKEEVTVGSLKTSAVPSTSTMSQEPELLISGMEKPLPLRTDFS

[2] = biological target: T1, WT STING; test: Differential scanning fluorimetry (DSF) with WT STING; format: binding; parameters: 8xHis (N, cleaved yes); SUMO (N, cleaved yes); made in house; host or cells: E. coli Rosetta-gami B (DE3); settings: thermal shift vs apoprotein; 150 μM CDN; truncated human WT STING 0.1 mg/ml
Description: (§1) Purified PCR products were cleaved with restriction enzymes BamHI (cat. #R0136S, NEB, Ipswich, USA) and NotI (cat. #R0189S, NEB, Ipswich, USA) and cloned into the pSUMO vector linearized with the identical enzymes.
(§2) DNase I (cat. #D5025, Sigma Aldrich, Czech Republic) and RNase A (cat. #R6513, Sigma Aldrich, Czech Republic) were added (final concentration 50 μg/ml) together with MgCl2 (final concentration 5 mmol·l^−1) to the homogenate and bacteria were lysed using French Press G-M™ High-Pressure Cell Press Homogenizer (1500 psi, 3 cycles). […] The resin was poured into a chromatography column, washed with 50 ml buffer A (50 mmol·l^−1 TrisCl (pH 8.0), 800 mmol·l^−1 NaCl, 3 mmol·l^−1 β-mercaptoethanol; 10% glycerol; 20 mmol·l^−1 imidazol) and 8-His-SUMO tagged STING proteins were eluted with 15 ml buffer A containing 300 mmol·l^−1 imidazole. […] Proteins were concentrated with Amicon® Ultra-15 10 K device (cat. #UFC901008, Merck Millipore, Billerica, USA) and flash frozen in liquid N2.
(§3) 20 μL solutions of the reaction mixtures were pipetted in triplicates into 96 well optical reaction plates and thermal denaturation of samples were performed on real time PCR cycler (LightCycler® 480 Instrument II—Roche, Basel, Switzerland). The first derivative of the thermal denaturation curves was performed to calculate denaturing temperatures of STING-CDN complexes and STING apoproteins. The thermal shift for each CDN was calculated by subtracting the average denaturing temperature of STING apoprotein from the average denaturing temperature of STING CDN complex.
Target sequence in this assay (Q86WV6 140-343 H232R): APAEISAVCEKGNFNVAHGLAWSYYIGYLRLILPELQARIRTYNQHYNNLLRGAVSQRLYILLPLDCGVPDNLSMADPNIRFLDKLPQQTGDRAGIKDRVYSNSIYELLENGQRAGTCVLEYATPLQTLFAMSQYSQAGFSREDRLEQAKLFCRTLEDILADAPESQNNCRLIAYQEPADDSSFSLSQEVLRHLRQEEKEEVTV

[3] = biological target: T2, AQ STING (G230A-R293Q) (Homo sapiens, UniProt Q86WV6, G230A/H232R/R293Q); test: Differential scanning fluorimetry (DSF) with AQ STING; format: binding; settings: thermal shift vs apoprotein; 150 μM CDN; truncated human AQ STING 0.1 mg/ml
T2 construct: 8xHis (N, cleaved yes); SUMO (N, cleaved yes); made in house; host or cells: E. coli Rosetta-gami B (DE3)
T2 sequence (Q86WV6 140-343 G230A/H232R/R293Q): as the sequence (Q86WV6 140-343 H232R) above, with G91A, R154Q counted along it
Description: as §1, §2, §3

SMILES	EC50 [1] [µM]	DSF ΔTm (° C.) WT STING [2] [°C]	DSF ΔTm (° C.) AQ STING [3] [°C]	ΔTm at 150 µM [2] [°C]	ΔTm at 150 µM [3] [°C]
Nc1nc2c(ncn2[C@@H]2O[C@@H]3COP(=O)(O)O[C@H]4[C@@H](O)[C@H](n5cnc6c(=O)[nH]c(N)nc65)O[C@@H]4COP(=O)(O)O[C@H]3[C@H]2O)c(=O)[nH]1 [3′3′c-di-GMP, reference compound]	5.8	2.6	7.7		
Nc1nc2c(ncn2[C@@H]2C[C@@H]3COP(=O)(O)O[C@H]4[C@@H](O)[C@H](n5cnc6c(N)ncnc65)O[C@@H]4COP(=O)(O)O[C@H]3[C@H]2O)c(=O)[nH]1 [Compound 101, 2-amino-9-((2R,3R,3aS,7aR,9R,10S,10aR,14aR)-2-(6-amino-9H-purin-9-yl)-3,5,10,12-tetrahydroxy-5,12-dioxidodecahydro-2H-cyclopenta[d]furo[3,2-j][1,3,7,9]tetraoxa[2,8]diphosphacyclo-dodecin-9-yl)-1,9-dihydro-6H-purin-6-one]	0.8	3.6	11.3		
Nc1nc2c(ncn2[C@@H]2C[C@@H]3COP(=O)(O)OC4C[C@H](n5cnc6c(N)ncnc65)O[C@@H]4COP(=O)(O)OC3C2O)c(=O)[nH]1 (stereo partly drawn) [Compound 106, 2-amino-9-((2R,3aS,7aR,9R,10S,10aR,14aR)-2-(6-amino-9H-purin-9-yl)-5,10,12-trihydroxy-5,12-dioxidodecahydro-2H-cyclopenta[d]furo[3,2-j][1,3,7,9]tetraoxa[2,8]diphosphacyclododecin-9-yl)-1,9-dihydro-6H-purin-6-one]	0.4			1.9	9

Stronger by EC50 [1], values ahead:

EC50 [1] [µM]	DSF ΔTm (° C.) WT STING [2] [°C]	DSF ΔTm (° C.) AQ STING [3] [°C]	ΔTm at 150 µM [2] [°C]	ΔTm at 150 µM [3] [°C]	SMILES
0.2			3.4	11.4	Nc1ncnc2c1ncn2[C@@H]1O[C@@H]2COP(=O)(O)OC3C(O)[C@H](n4cnc5c(=O)[nH]cnc54)C[C@@H]3COP(=O)(O)OC2C1O (stereo partly drawn) [Compound 104, 9-((2R,3R,3a5,7aR,9R,10S,10aR,14aR)-2-(6-amino-9H-purin-9-yl)-3,5,10,12-tetrahydroxy-5,12-dioxidodecahydro-2H-cyclopenta[d]furo[3,2-j][1,3,7,9]tetraoxa[2,8]diphosphacyclododecin-9-yl)-1,9-dihydro-6H-purin-6-one]
0.01			7.6	16.7	Nc1ncnc2c1ncn2[C@@H]1O[C@@H]2COP(=O)(O)OC3C(O)[C@H](n4cnc5c(=O)[nH]cnc54)C[C@@H]3COP(=O)(O)OC2C1F (stereo partly drawn) [Compound 107, 9-((2R,3R,3aR,7aR,9R,10S,10aR,14aR)-2-(6-amino-9H-purin-9-yl)-3-fluoro-5,10,12-trihydroxy-5,12-dioxidodecahydro-2H-cyclopenta[d]furo[3,2-j][1,3,7,9]tetraoxa[2,8]diphosphacyclododecin-9-yl)-1,9-dihydro-6H-purin-6-one]
0.04			5.2	14.3	Nc1nc2c(ncn2[C@@H]2O[C@@H]3COP(=O)(O)OC4C(O)[C@H](n5cnc6c(N)ncnc65)C[C@@H]4COP(=O)(O)OC3C2O)c(=O)[nH]1 (stereo partly drawn) [Compound 108, 2-amino-9-((2R,3R,3aS,7aR,9R,10S,10aR,14aR)-9-(6-amino-9H-purin-9-yl)-3,5,10,12-tetrahydroxy-5,12-dioxidodecahydro-2H-cyclopenta[d]furo[3,2-j][1,3,7,9]tetraox[2,8]diphosphacyclododecin-2-yl)-1,9-dihydro-6H-purin-6-one]
0.05			5.8	15.7	Nc1nc2c(ncn2[C@H]2CC3OP(=O)(O)OC[C@H]4C[C@@H](n5cnc6c(N)ncnc65)C(O)C4OP(=O)(O)OC[C@H]3O2)c(=O)[nH]1 (stereo partly drawn) [Compound 110, 2-amino-9-((2R,3a5,7aR,9R,10S,10aR,14aR)-9-(6-amino-9H-purin-9-yl)-5,10,12-trihydroxy-5,12-dioxidodecahydro-2H-cyclopenta[d]furo[3,2-j][1,3,7,9]tetraoxa[2,8]diphosphacyclododecin-2-yl)-1,9-dihydro-6H-purin-6-one]
